According to ChEMBL document CHEMBL4715811, “Antagonists of Orexin Receptors as Potential Treatment of Sleep Disorders, Obesity, Eating Disorders, and Other Neurological and Psychiatric Disorders” (ACS Med Chem Lett, 2016):

Legend:
[1] = target: T1, Orexin/Hypocretin receptor type 1 (Homo sapiens, UniProt O43613); assay: Antagonist activity at human OX1R expressed in CHO cells assessed as inhibition of orexin A-induced intracellular Ca2+ release by FLIPR assay; type: functional, cell-based
T1 sequence (O43613 whole entry): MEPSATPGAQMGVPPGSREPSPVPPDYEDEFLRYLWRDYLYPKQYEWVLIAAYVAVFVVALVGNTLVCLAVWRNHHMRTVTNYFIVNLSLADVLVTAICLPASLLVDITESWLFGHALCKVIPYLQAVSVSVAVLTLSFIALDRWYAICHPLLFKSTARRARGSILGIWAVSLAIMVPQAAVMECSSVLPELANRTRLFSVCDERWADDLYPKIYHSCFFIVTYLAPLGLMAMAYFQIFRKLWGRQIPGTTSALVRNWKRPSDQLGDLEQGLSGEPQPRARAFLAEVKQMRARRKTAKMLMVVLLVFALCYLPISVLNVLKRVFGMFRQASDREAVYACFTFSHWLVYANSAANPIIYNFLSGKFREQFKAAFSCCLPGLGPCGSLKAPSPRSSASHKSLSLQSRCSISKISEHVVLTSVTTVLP

Orexin receptor type 2 = target: T2, Orexin receptor type 2 (Homo sapiens, UniProt O43614); assay: Antagonist activity at human OX2R expressed in CHO cells assessed as inhibition of orexin A-induced intracellular Ca2+ release by FLIPR assay; type: functional, cell-based
T2 sequence (O43614 whole entry): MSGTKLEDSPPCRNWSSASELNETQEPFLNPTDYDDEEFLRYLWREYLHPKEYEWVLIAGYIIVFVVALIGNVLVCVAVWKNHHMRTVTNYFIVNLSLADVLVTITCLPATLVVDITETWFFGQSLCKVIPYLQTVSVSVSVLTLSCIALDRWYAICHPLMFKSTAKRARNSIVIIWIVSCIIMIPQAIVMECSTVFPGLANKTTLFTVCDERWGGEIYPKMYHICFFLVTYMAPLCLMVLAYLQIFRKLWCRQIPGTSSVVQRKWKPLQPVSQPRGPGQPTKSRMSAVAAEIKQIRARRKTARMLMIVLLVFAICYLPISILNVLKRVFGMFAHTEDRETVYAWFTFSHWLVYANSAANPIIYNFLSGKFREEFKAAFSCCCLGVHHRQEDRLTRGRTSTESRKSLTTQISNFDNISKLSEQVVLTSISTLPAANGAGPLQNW

Row | SMILES | IC50 [1] [nM] | IC50 (Orexin receptor type 2) [nM]
1 | CC[C@](C)(O)c1nc([C@@H]2CC[C@@H](C)N(C(=O)c3cscc3-n3nccn3)C2)oc1C | 9770 | 18
2 | C[C@@H]1CC[C@@H](c2nc(CN(C)C)c(-c3ccccc3)o2)CN1C(=O)c1ccccc1-n1nccn1 |  | 983
3 | CCOc1ccccc1C(=O)N1C[C@H](c2nc(C(C)(C)O)c(C)o2)CC[C@H]1C |  | 12
